Entries after “also recorded” stand apart in the source; their conditions may differ. Marks after values point to notes of the source that are not given here.
Experiments:
Format in all cases: in vivo
Florida-47 tomato = assay: Marketable yield per plant, greenhouse Fall 2007, tomato; details: for Marketable yield per plant, Tomato: foliar application at 3 and 7 WAT, rates not separated; for Tomato yield compared with control (in words): foliar applications, P<0.05
Description: (§1) The following experiments were performed in a green house during the fall of 2007 at GCREC, Balm, University of Florida. Fifteen products, at 3 different application rates were examined. The plot size was 2-gallon pots. Crop set-up, procedures and variables were as follows.
(§2) Transplants of ‘Florida-47’ tomato and ‘Aristotle’ bell pepper plants in the 4-true leaf stage (about 6 inches tall) were planted in 2-gal pots on Aug. 27, 2007. Pots were filled with a commercially available planting medium. This medium was selected based on the mineral composition of the products to be applied without providing significant nutritional inputs to the crops. Irrigation was provided with drip lines delivering between 0.50 and 0.33 gal/day/pot for tomato and bell pepper, respectively, and the crops were irrigated three times per day. No foliar pesticides were necessary.
(§3) There were four control treatments corresponding to each target micronutrient in which non-Fe, non-Mn, non-Zn or non-Cu pots received all other essential nutrients under non-limiting conditions.
(§4) Treatments were applied at three rates (high, medium and low) obtained from the estimated concentration of Zn, Fe, Cu, and Mn foliarly-applied in tomato and bell pepper in field situations (Table 1). Products were weighed and dissolved in 200 ml of deionized water with a non-ionic surfactant and applied to the newly-matured open leaves of each crop at 3 and 7 weeks after transplant (WAT). Treated pots were isolated during application to avoid cross-contamination of other treatments.
(§5) Medium nutrient concentration was determined 1 week before treatment. The mineral composition of the medium was 26.8 ppm NH4—N, 49 ppm NO3—N, 15.8 ppm P, 91.2 ppm K, 82.3 ppm Ca, 58.2 ppm Mg, 23.9 ppm Na, 125.6 ppm S, 1.33 ppm Fe, 0.39 ppm Mn, 0.35 ppm Zn, 0.05 pp, Cu, 0.04 ppm B, 0 ppm Mo, 0.73 ppm Al, and 12.1 ppm Si. The pH of the medium was 5.36 and the electric conductivity was 1.38 mS/cm. The foliar tissue analysis was performed at 6 WAT and the concentration of N, P, K, Mg, Ca, S, B, Zn, Mn, Fe, and Cu was determined by a commercial laboratory. Plant toxicity was determined at 4 WAT by using a 0-10 visual scale, where 0=no visible damage and 10=total plant death. Marketable fruit weight was collected 2 times in bell pepper and 4 times in tomato following USDA standards.
(§6) Data were analyzed using a general linear model, and means were separated using orthogonal contrasts at the 5% significance level.

Aristotle bell pepper = assay: Marketable yield per plant, greenhouse Fall 2007, bell pepper; details: for Marketable yield per plant, Pepper: foliar application at 3 and 7 WAT, rates not separated; for Bell pepper yield compared with control (in words): foliar applications, P<0.05
Description: as §1, §2, §3, §4, §5, §6

Tygress tomato plants [1] = assay: Marketable yield, open-field tomato (Examples 7-10); details: open field; for Marketable yield, Tomato: lb/acre/season: BIOX-Z 1.3, Cu 6.7, M 23.0, Fe 3.2, INC 4.0, INZ 0.6, CM 10.0, GZ 1.0, GF 4.0, EDZ 1.4, EDM 23.0
In short: (§7)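 Open-field 2008 trial, Balm FL; 'Tygress' tomato and 'Patriot' pepper transplants on drip-fed raised beds. Foliar micronutrient sprays at 3 and 5 WAT (BIOX-CM at 4 and 5), 60 gal/acre with surfactant. Youngest mature leaves sampled 6 WAT; RCBD, 5 replications, Fisher's LSD 5%.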

[2] = system: Patriot bell pepper plants; assay: Marketable yield, open-field bell pepper (Examples 7-10); details: open field; lb/acre/season: BIOX-Z 1.3, Cu 6.7, M 23.0, Fe 3.2, INC 4.0, INZ 0.6, CM 10.0, GZ 1.0, GF 4.0, EDZ 1.4, EDM 23.0
In short: as §7

Tygress tomato plants [3] = assay: Yields of tomato fruits, greenhouse (Examples 4-6); details: for Marketable yield: tomato fruits
In short: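 Tygress tomato in 2-gallon pots of micronutrient-poor medium (negligible Fe, Zn, Mn, Cu) in greenhouse; foliar treatments at 5 WAT in 200 mL/plant water with non-ionic surfactant. Newest non-applied leaves analysed 2 weeks before and after treatment; marketable fruit harvested three times from 10 WAT, graded. RCBD, 6 replications, LSD 5%.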

| Compound | Marketable yield per plant, Tomato (Florida-47 tomato) | Tomato yield compared with control (in words) (Florida-47 tomato) | Marketable yield per plant, Pepper (Aristotle bell pepper) | Bell pepper yield compared with control (in words) (Aristotle bell pepper) | Tomato marketable yield compared to control, statement (Tygress tomato plants [1]) | Marketable yield, Tomato (Tygress tomato plants [1]) | Marketable yield, Bell Pepper [2] | Marketable yields compared with the other Zn formulations (in words) (Tygress tomato plants [3]; BIOX-Z at a concentration higher than 0.1 lb/acre) | Marketable yield (Tygress tomato plants [3]; Zn 0.1 lb/acre) | Marketable yield (Tygress tomato plants [3]; Zn 0.2 lb/acre) | Marketable yield (Tygress tomato plants [3]; Zn 0.4 lb/acre) | Marketable yield (Tygress tomato plants [3]; Zn 0.8 lb/acre) | Marketable tomato yield compared with non-treated control (in words) (Tygress tomato plants [3]; BIOX-M at 1.23 lb/acre or more, BIOX-EDM at 2.0 lb/acre, Mn-sulfate at 1.0 lb/acre) | Marketable yield (Tygress tomato plants [3]; Mn 0.31 lb/acre) | Marketable yield (Tygress tomato plants [3]; Mn 0.62 lb/acre) | Marketable yield (Tygress tomato plants [3]; Mn 1.23 lb/acre) | Marketable yield (Tygress tomato plants [3]; Mn 2.46 lb/acre) |
| --- | --- | --- | --- | --- | --- | --- | --- | --- | --- | --- | --- | --- | --- | --- | --- | --- | --- |
| CSCCC(O)C(=O)[O-].CSCCC(O)C(=O)[O-].[Cu+2] (centres unmarked) [BIOX-Cu, Cu-HMTBA] | 5.5* lb/plant | significantly increased | 4.0* lb/plant | significantly increased | significantly increased tomato marketable yields relative to control; also recorded: significantly higher marketable yield of tomato fruits compared to control | 19.2 a ton/acre | 7.8 ton/acre | – | – | – | – | – | – | – | – | – | – |
| CSCCC(O)C(=O)[O-].CSCCC(O)C(=O)[O-].[Zn+2] (centres unmarked) [BIOX-Z, Zn-HMTBA] | 2.9* lb/plant | significantly increased | 2.9* lb/plant | significantly increased | significantly higher than the control tomato harvest; also recorded: higher marketable yield compared to control | 17.5 ton/acre | 8.4 ton/acre | statistically similar to the other Zn supplementation treatment formulations | 2.3 b lb/plant | 3.7 a lb/plant | 3.9 a lb/plant | 3.8 a lb/plant | – | – | – | – | – |
| CSCCC(O)C(=O)[O-].CSCCC(O)C(=O)[O-].[Mn+2] (centres unmarked) [BIOX-M, Mn-HMTBA] | 5.8* lb/plant | significantly increased | 3.9* lb/plant | significantly increased | significantly higher marketable yield of tomato fruits; also recorded: higher marketable yield of tomato fruits compared to control | 18.1 a ton/acre | 6.3 ton/acre | – | – | – | – | – | significantly higher than the non-treated control | 2.2 b lb/plant | 2.1 b lb/plant | 4.2 a lb/plant | 4.3 a lb/plant |
| Fe-HMTBA [BIOX-Fe] | – | – | – | – | significantly higher tomato marketable yield compared to control | 17.8 a ton/acre | 7.2 ton/acre | – | – | – | – | – | – | – | – | – | – |
| EDTA chelated zinc [BIOX-EDZ] | – | – | – | – | significantly higher than the control tomato harvest | 16.2 ton/acre | 8.1 ton/acre | – | – | – | 3.5 a lb/plant | – | – | – | – | – | – |
